Assay results from patent US4656158A, “Peptide, and production and use thereof” (Suntory Limited, priority 1984, dated 1987).

Assays:
solubility in solvents = assay type: physicochemical
[1] = repeated administration: immunogenicity and toxicity; assay type: in vivo

CC[C@H](C)[C@@H]1NC(=O)[C@H](CCCNC(=N)N)NC(=O)[C@H](CC(=O)O)NC(=O)[C@H](CCSC)NC(=O)[C@H](CCCNC(=N)N)NC(=O)CNC(=O)CNC(=O)[C@H](Cc2ccccc2)NC(=O)[C@@H](NC(=O)[C@H](CO)NC(=O)[C@H](CO)NC(=O)[C@H](CCCNC(=N)N)NC(=O)[C@H](CCCNC(=N)N)NC(=O)[C@H](CC(C)C)NC(=O)[C@@H](N)CO)CSSC[C@@H](C(=O)N[C@@H](CC(N)=O)C(=O)N[C@@H](CO)C(=O)N[C@@H](Cc2ccccc2)C(=O)N[C@@H](CCCNC(=N)N)C(=O)N[C@@H](Cc2ccc(O)cc2)C(=O)O)NC(=O)CNC(=O)[C@H](CC(C)C)NC(=O)CNC(=O)[C@H](CO)NC(=O)[C@H](CCC(N)=O)NC(=O)[C@H](C)NC(=O)CNC(=O)[C@H]([C@@H](C)CC)NC(=O)[C@H](CCCNC(=N)N)NC(=O)[C@H](CC(=O)O)NC(=O)[C@H](CCSC)NC(=O)[C@H](CCCNC(=N)N)NC(=O)CNC(=O)CNC(=O)[C@H](Cc2ccccc2)NC(=O)[C@@H](NC(=O)[C@H](CO)NC(=O)[C@H](CO)NC(=O)[C@H](CCCNC(=N)N)NC(=O)[C@H](CCCNC(=N)N)NC(=O)[C@H](CC(C)C)NC(=O)[C@@H](N)CO)CSSC[C@@H](C(=O)N[C@@H](CC(N)=O)C(=O)N[C@@H](CO)C(=O)N[C@@H](Cc2ccccc2)C(=O)N[C@@H](CCCNC(=N)N)C(=O)N[C@@H](Cc2ccc(O)cc2)C(=O)O)NC(=O)CNC(=O)[C@H](CC(C)C)NC(=O)CNC(=O)[C@H](CO)NC(=O)[C@H](CCC(N)=O)NC(=O)[C@H](C)NC(=O)CNC1=O [β-hANP, β-human atrial natriuretic polypeptide]
solubility in organic solvents (solubility in solvents; ethyl acetate, butyl acetate, ethyl ether, hexane, petroleum ether, benzene, chloroform): insoluble
solubility in methanol and acetic acid (solubility in solvents; methanol, acetic acid): partially
solubility in water (solubility in solvents; water): soluble
toxicity ([1]; gradually hydrolized in a body to L-amino acids): little toxicity
anaphylaxis shock ([1]; repeated administration): does not cause anaphylaxis shock
production of antibodies ([1]; repeated administration): does not stimulate production of antibodies
